According to US10172911B2, “Methods of modulating erythropoiesis with arginine vasopressin receptor 1B molecules” (The United States of America, as represented by the …, priority 2013, dated 2019):
Entries after “also recorded” stand apart in the source; their conditions may differ.

Experiments:
[1] = system: CD34^+ cells from healthy donors; assay: CFU assay (E-CFU, GM-CFU) of human CD34+ cells in Methocult; type: cell-based; settings: for effect of pathway inhibitor on CFU increase elicited by AVP: 10^−8 M AVP; for effect of pathway inhibitor on CFU increase elicited by AVPR1B agonist: 10^−8 M AVPR1B agonist; for effect of pathway inhibitor on GM-CFU increase induced by OXT: 10^−8 M OXT
Description: CD34^+ cells from healthy donors were plated into semi-solid methylcellulose medium (Methocult) containing hematopoietic factors (GM-CSF 5 ng/ml, IL-3 5 ng/ml, SCF 50 ng/ml, EPO 2.5 U/ml).
The number of erythroid colony forming units (E-CFU) and granulocyte-macrophage colony forming units (GM-CFU) were determined based on morphological criteria on 7th and 14th days in culture.

[2] = system: human CD34+ hematopoietic progenitors; assay: Intracellular Ca2+ measurement in Fura-2 loaded human CD34+ hematopoietic progenitors; type: cell-based; settings: human CD34+ cells; for intracellular calcium levels: agonist stimulation
Description: Human BMSCs were loaded with Fura-2 and the cells were stimulated with AVP, or OXT. Intracellular Ca^2+ concentration was assayed as described before (Ely, J. A. et al. J Biol Chem 266, 18635-18641 (1991). To study their response to AVP and specific AVP receptor agonists and antagonists human CD34+ hematopoietic progenitors were Fura-2 loaded and Cytoplasmic Ca2+ measurements were performed in cells kept in suspension using a fluorescence spectrophotometer (Deltascan, Photon Technology International). Ratiometric measurements were recorded at 340/380 nm excitation and 500 nm emission and the ratios were plotted against time. Ionomycin (10 μM) was added at the end of each run to determine the maximum fluorescence ratio.

Human BMSCs = assay: BMSC signalling (ERK phosphorylation, cAMP, intracellular Ca2+); type: cell-based; settings: BMSC cultures
Description: For cAMP quantitation, 8×10^5 per well human BMSCs were plated in 6 well plates and left to attach overnight. Next day, the medium was changed and the cells were stimulated with AVP or deamino-Cys^1, D-Arg^8 AVP (DDAVP, a V2 receptor agonist) at 10^−6 M for 4 minutes. Cells were washed with PBS and lysed with R&D cell lysis buffer. Cyclic AMP was measured with the R&D cAMP Parameter assay kit (R&D Systems, Minneapolis, Minn.) according to manufacturer's instructions. Total protein concentrations of the cell lysates were measured using the Micro BCA Protein Assay kit (Pierce, Rockford, Ill.) and cAMP amount was normalized to 100 μg of total protein.

[3] = system: mouse bone marrow LSK cells; assay: BrdU cell proliferation assay, sorted mouse bone marrow LSK cells; type: cell-based; settings: 10^−8M-10^−14M, 2 days culture
Description: (§1) Sorted mouse bone marrow LSK cells (10000 cells/well) were plated in a 96 well plate in Stemspan serum free expansion medium ([…] Technologies, Vancouver, Canada) with Pen/Strep, and the following hematopoietic factors: 100 ng/ml TPO, 50 ng/ml FLT3L, 50 ng/ml IL-3 and SCF 100 ng/ml (Peprotech, Rocky Hill, N.J.). Cells were treated with […] (Sigma-Aldrich, St. Louis, Mo.). When using human CD34^+ cells (5000 cells/well), human SCF, TPO, FLT3L and G-CSF (Peprotech, each at 50-100 ng/ml) were added to the Stemspan medium. Cells were treated with 10^−8M-10^−14M AVP. After 24 hours, BrdU at a 1:1000 concentration was added to the cultures and incorporation of BrdU was measured using the Cell Proliferation ELISA BrdU kit (Roche, Mannheim, Germany) after another 24 hours of incubation.

human CD34^+ cells = assay: BrdU cell proliferation assay, human CD34+ cells; type: cell-based
Description: as §1

C57BL6 male mice = assay: Hemorrhage anemia model, Alzet pump delivery; type: in vivo, mouse; settings: hemorrhage, FIG. 9D
Description: Mice were anesthetized with isoflurane. Twenty five percent of their calculated circulating blood volume (calculated based on Animal Research Advisory Committee Guidelines for survival bleeding of mice and rats, OACU, NIH) was drained from the retro-orbital plexus.
The reticulocyte ratio of peripheral blood was determined using the Retic-Count flow kit (BD Biosciences) according to the manufacturer's instructions. Hematocrit values were measured with an automated analyzer and microhematocrit tubes. The reticulocyte index was calculated as follows: reticulocyte ratio %/total gated cells×hematocrit/45.
To infuse vasopressin into the mice, AVP filled ALZET pumps were implanted subcutaneously on the dorsal aspect of the neck (5 ug/day, Alzet 1007D—7 days, 2002-14 days). Vasopressin was also given immediately and 6 hours later as a bolus injection (100 μg/kg). Alzet pumps were inserted subcutaneously. The dimensions and pump specification are: ALZET, (DURECT Corporation, Cupertino, Calif., USA) mini-osmotic pump models 1007D or 2002. The pumps deliver 0.5 μl/h of the desired substance for a for 2-week period. In some cases, erythropoietin antibody (100 μg/mice) was given before anesthesia with the corresponding control antibody. […] Following the initial hemorrhage blood samples were taken at 2, 4 and in some cases 6 days later to determine hematocrit and corrected reticulocyte values.

[4] = per 1000 plated CD34+ cells, 10^−8 M

## 1L-6-hydroxymethyl-chiro-inositol 2-(R)-2-O-methyl-3-O-octadecylcarbonate [HIMO]
[1]; Dkk1 200 ng/ml, HIMO 10^−8 M
  effect of pathway inhibitor on CFU increase elicited by AVP: had no effect
  effect of pathway inhibitor on CFU increase elicited by AVPR1B agonist: had no effect
  effect of pathway inhibitor on GM-CFU increase induced by OXT: did block
  GM-CFU numbers, inhibitor on its own: Neither Dkk1 nor HIMO affected GM-CFU numbers on their own

## dCha^4AVP
[2]
  intracellular calcium levels: increased intra-cellular Ca^2+ concentrations
[1]; 10^−8M
  colony formation: stimulated colony formation

## NC[C@H](O)c1ccc(O)c(O)c1 [noradrenaline]
[1]; [4]
  erythroid-colony forming unit (E-CFU) numbers: significantly increased

## NC(=O)CC[C@@H]1NC(=O)[C@H](Cc2ccccc2)NC(=O)[C@H](Cc2ccc(O)cc2)NC(=O)CCSSC[C@@H](C(=O)N2CCC[C@H]2C(=O)N[C@H](CCCN=C(N)N)C(=O)NCC(N)=O)NC(=O)[C@H](CC(N)=O)NC1=O [AVPR2 agonist, deamino-Cys^1, D-Arg^8 AVP]
Human BMSCs; 10^−6 M for 4 minutes
  cyclic AMP: increase in cyclic AMP

## CC[C@H](C)[C@@H]1NC(=O)[C@H](Cc2ccc(O)cc2)NC(=O)[C@@H](N)CSSC[C@@H](C(=O)N2CCC[C@H]2C(=O)N[C@@H](CC(C)C)C(=O)NCC(N)=O)NC(=O)[C@H](CC(N)=O)NC(=O)[C@H](CCC(N)=O)NC1=O [OXT, oxytocin]
[3]
  proliferation (BrdU incorporation) of mouse LSK cells: induced proliferation; also recorded: stimulated LSK proliferation
Human CD34^+ cells
  proliferation (BrdU) of human CD34+ cells / HSPCs: responded to AVP and OXT in much the same way as mouse LSK cells did
[1]; [4]
  granulocyte macrophage-colony forming unit (GM-CFU) numbers: increased only GM-CFU numbers
Human BMSCs
  ERK phosphorylation: induced ERK phosphorylation
  intracellular calcium: increase in intracellular Ca^2+ concentrations

## COc1ccc(S(=O)(=O)N2C(=O)[C@@](c3ccccc3OC)(N3C[C@H](O)C[C@H]3C(=O)N(C)C)c3cc(Cl)ccc32)c(OC)c1 [AVPR1B antagonist, SSR 149415 - Nelivaptan]
[2]; antagonist
  block of the AVP-induced increase in calcium: could be blocked
Human CD34^+ cells; antagonist
  block of AVP / AVPR1B agonist induced proliferation of human HSPCs: blocked; also recorded: both effects were seen

## [Phe2, Ile3, Orn8] Vasopressin [AVPR1A agonist]
[2]
  intracellular calcium levels: did not respond

## desGlyAVP
[3]
  proliferation (BrdU incorporation) of mouse LSK cells: did not

## d[Leu4, Lys8]-VP [dLeu^4Lys^8-VP]
C57BL6 male mice
  recovery times: significantly improved recovery times

B1: Dkk1: dickkopf related protein 1, Wnt pathway inhibitor (protein, UniProt O94907 32-266, looked up)
Dickkopf-related protein 1: TLNSVLNSNAIKNLPPPLGGAAGHPGSAVSAAPGILYPGGNKYQTIDNYQPYPCAEDEECGTDEYCASPTRGGDAGVQICLACRKRRKRCMRHAMCCPGNYCKNGICVSSDQNHFRGEIEETITESFGNDHSTLDGYSRRTTLSSKMYHTKGQEGSVCLRSSDCASGLCCARHFWSKICKPVLKEGQVCTKHRRKGSHGLEIFQRCYCGEGLSCRIQKDHHQASNSSRLHTCQRH
[1]; Dkk1 200 ng/ml, HIMO 10^−8 M
  effect of pathway inhibitor on CFU increase elicited by AVP: blocked the increase in GM-CFU numbers
  effect of pathway inhibitor on CFU increase elicited by AVPR1B agonist: blocked the increase in GM-CFU numbers
  effect of pathway inhibitor on GM-CFU increase induced by OXT: did not alter
[1]; Dkk1 200 ng/ml, HIMO 10^−8 M, listed as DKK-1
  effect of pathway inhibitor on CFU increase elicited by AVP: did block
